From patent US11286248B2, “Pyrazine-2(1H)-ketone compound acting as FGFR inhibitor” (ZHANGZHOU PIEN TZE HUANG PHARMACEUTICAL CO., LTD., priority 2018, dated 2022)
Structures can show the parent of a compound that is named as a salt. Where two headings read alike, the source gives them in different places.

Legend:
human FGFR1 = biological target: T1, human FGFR1 (Homo sapiens, UniProt P11362); experiment: 33P isotope-labeled kinase activity test (Reaction Biology Corp), wild-type FGFR1; format: biochemical; details: 33P-ATP 5 μM, substrate pEY + Mn, 120 minutes at room temperature
T1 construct: purchased Invitrogen PV3146
T1 sequence (P11362 22-822): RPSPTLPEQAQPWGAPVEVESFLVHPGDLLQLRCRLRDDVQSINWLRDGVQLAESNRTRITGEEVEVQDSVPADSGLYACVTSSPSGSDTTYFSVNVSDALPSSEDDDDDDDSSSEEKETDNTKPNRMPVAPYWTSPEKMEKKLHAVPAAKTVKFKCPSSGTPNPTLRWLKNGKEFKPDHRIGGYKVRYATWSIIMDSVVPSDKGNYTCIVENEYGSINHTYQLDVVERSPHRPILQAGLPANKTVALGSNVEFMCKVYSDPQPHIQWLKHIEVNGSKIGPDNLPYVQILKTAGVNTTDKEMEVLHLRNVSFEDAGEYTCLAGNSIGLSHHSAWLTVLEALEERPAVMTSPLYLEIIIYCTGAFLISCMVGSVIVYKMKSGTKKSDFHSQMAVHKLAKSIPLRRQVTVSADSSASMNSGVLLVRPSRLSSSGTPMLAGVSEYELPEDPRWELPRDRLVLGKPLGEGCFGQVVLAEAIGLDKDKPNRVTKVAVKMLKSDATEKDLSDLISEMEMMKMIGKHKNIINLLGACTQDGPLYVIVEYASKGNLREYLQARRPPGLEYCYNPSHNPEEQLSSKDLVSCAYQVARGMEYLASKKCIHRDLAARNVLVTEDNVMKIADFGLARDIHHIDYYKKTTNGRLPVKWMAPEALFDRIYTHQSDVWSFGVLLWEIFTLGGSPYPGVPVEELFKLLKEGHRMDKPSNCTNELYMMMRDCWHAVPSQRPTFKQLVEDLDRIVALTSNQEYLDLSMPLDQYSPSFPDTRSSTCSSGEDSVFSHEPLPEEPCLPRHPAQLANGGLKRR
Method: (§1) The IC50 value is determined using ^33P isotope-labeled kinase activity test (Reaction Biology Corp) to evaluate the inhibitory ability of the compounds to be tested on human FGFR1 and FGFR4.
(§2) Buffer conditions: 20 mM 4-(2-hydroxyethyl)-1-piperazineethanesulfonic acid (Hepes) (pH 7.5), 10 mM MgCl2, 1 mM ethylene glycol-bis-(2-aminoethyl ether)tetraacetic acid (EGTA), 0.02% polyoxyethylene lauryl ether (Brij35), 0.02 mg/ml bovine serum albumin (BSA), 0.1 mM sodium vanadate (Na3VO4), 2 mM dithiothreitol (DTT), and 1% DMSO.
Test steps: At room temperature, the compounds to be tested are dissolved in DMSO to prepare a 10 mM solution for use. The substrate is dissolved in the newly prepared buffer, and the kinase to be tested is added and mixed well. The DMSO solution in which the compounds to be tested are dissolved is added to the above-mentioned homogeneous reaction solution using acoustic technology (Echo 550). […] After incubating for 15 minutes, ^33P-ATP (activity: 0.01 μCi/μl, with corresponding concentration being listed in table 1) is added to start the reaction. The supplier article number, batch number, and the concentration information in the reaction solution of FGFR1, FGFR4 and substrates thereof are listed in table 1. […] The kinase activity data is expressed by comparing the kinase activity of the groups containing the compounds to be tested with that of the blank group (containing only DMSO). The IC50 value is obtained by curve fitting using Prism4 software (GraphPad), and the experimental results are shown in table 2.

FGFR2 = biological target: T2, FGFR2 (Homo sapiens, UniProt P21802); experiment: 33P isotope-labeled kinase activity test (Reaction Biology Corp), wild-type FGFR2; format: biochemical
T2 construct: purchased Invitrogen PV3368
T2 sequence (P21802 22-821): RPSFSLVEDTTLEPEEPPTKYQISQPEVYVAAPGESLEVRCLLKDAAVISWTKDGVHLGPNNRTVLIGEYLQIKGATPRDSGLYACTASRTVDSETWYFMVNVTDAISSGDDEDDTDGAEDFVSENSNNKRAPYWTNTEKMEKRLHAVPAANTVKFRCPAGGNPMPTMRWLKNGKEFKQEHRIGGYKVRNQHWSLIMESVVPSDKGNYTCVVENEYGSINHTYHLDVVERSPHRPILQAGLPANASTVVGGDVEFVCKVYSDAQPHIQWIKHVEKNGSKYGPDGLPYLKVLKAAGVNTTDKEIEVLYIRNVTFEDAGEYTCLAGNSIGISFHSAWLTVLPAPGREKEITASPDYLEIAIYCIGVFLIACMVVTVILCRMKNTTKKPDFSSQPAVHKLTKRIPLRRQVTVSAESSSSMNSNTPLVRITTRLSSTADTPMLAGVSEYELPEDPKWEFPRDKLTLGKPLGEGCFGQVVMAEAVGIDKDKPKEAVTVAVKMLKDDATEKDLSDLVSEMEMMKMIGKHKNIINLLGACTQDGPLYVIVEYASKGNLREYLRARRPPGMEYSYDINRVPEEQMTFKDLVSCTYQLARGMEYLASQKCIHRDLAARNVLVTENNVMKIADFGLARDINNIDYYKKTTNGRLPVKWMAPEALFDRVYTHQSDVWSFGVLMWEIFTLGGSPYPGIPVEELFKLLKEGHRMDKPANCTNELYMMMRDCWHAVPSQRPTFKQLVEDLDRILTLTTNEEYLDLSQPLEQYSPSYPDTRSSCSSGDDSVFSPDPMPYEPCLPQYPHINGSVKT

FGFR3 = biological target: T3, FGFR3 (Homo sapiens, UniProt P22607); experiment: 33P isotope-labeled kinase activity test (Reaction Biology Corp), wild-type FGFR3; format: biochemical
T3 construct: purchased Invitrogen PV3145
T3 sequence (P22607 23-806): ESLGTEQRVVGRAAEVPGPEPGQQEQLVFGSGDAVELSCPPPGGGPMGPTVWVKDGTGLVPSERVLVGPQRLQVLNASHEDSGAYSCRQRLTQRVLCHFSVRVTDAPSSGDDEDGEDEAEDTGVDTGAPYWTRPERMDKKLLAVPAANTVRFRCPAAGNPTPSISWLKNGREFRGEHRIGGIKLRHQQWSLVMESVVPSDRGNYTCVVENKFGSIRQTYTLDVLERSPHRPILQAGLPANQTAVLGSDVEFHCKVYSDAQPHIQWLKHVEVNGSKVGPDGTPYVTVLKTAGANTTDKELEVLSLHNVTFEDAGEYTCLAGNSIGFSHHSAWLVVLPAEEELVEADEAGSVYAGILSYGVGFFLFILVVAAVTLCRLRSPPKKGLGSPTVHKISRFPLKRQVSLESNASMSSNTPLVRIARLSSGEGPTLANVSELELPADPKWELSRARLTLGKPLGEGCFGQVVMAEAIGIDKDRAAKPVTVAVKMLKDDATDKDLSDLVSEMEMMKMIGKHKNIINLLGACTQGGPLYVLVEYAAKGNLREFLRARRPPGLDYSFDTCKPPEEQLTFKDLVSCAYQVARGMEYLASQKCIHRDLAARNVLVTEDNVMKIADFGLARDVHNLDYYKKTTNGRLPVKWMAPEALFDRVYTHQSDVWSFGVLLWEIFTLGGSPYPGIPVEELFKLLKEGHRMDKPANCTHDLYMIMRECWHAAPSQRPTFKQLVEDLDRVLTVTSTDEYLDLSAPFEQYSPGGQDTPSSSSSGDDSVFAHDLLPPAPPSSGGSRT

human FGFR4 = biological target: T4, human FGFR4 (Homo sapiens, UniProt P22455); experiment: 33P isotope-labeled kinase activity test (Reaction Biology Corp), wild-type FGFR4; format: biochemical; details: 33P-ATP 2.5 μM, substrate pEY + Mn, 120 minutes at room temperature
T4 construct: purchased Invitrogen P3054
T4 sequence (P22455 22-802): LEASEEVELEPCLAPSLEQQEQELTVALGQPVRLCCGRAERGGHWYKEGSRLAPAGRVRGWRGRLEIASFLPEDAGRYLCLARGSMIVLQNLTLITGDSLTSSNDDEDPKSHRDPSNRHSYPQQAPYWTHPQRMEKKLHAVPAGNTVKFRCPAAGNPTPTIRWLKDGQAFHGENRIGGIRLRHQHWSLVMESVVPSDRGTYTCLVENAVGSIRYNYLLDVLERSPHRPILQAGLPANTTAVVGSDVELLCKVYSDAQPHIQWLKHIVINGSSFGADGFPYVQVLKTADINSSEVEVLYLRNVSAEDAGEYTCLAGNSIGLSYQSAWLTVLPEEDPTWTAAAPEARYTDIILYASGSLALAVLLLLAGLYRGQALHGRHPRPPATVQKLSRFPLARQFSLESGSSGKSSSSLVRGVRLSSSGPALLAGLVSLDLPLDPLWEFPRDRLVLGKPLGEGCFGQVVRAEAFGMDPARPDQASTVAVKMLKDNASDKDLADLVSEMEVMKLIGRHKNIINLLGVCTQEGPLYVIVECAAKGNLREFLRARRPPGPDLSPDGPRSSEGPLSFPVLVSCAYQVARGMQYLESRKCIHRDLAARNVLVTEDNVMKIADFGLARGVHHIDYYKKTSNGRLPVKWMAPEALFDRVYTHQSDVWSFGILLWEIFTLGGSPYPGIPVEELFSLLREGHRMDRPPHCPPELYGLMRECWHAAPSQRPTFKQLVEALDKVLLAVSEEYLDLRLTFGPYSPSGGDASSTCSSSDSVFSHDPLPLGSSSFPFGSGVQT
Method: as §1, §2
Test steps: At room temperature, the compounds to be tested are dissolved in DMSO to prepare a 10 mM solution for use. The substrate is dissolved in the newly prepared buffer, and the kinase to be tested is added and mixed well. The DMSO solution in which the compounds to be tested are dissolved is added to the above-mentioned homogeneous reaction solution using acoustic technology (Echo 550). […] After incubating for 15 minutes, ^33P-ATP (activity: 0.01 μCi/μl, with corresponding concentration being listed in table 1) is added to start the reaction. The supplier article number, batch number, and the concentration information in the reaction solution of FGFR1, FGFR4 and substrates thereof are listed in table 1. After the reaction is carried out at room temperature for 120 minutes, the reaction solution is spotted on P81 ion exchange filter paper (Whatman #3698-915). After the filter paper is repeatedly washed with 0.75% phosphoric acid solution, the radioactivity of the phosphorylated substrate remaining on the filter paper is measured. The kinase activity data is expressed by comparing the kinase activity of the groups containing the compounds to be tested with that of the blank group (containing only DMSO). The IC50 value is obtained by curve fitting using Prism4 software (GraphPad), and the experimental results are shown in table 2.

[1] = Pharmacokinetic evaluation of compounds in mice; format: in vivo; details: CD-1 mouse (male), single gavage, plasma; for MRT last: read-out: MRT0-last
Method: Experimental purpose: testing pharmacokinetics of the compounds in mice
CD-1 mouse (male), vehicle (an aqueous solution of 0.5% (w/v) methylcellulose and 0.5% (v/v) Tween 80), and trfluoroacetate salt of compound 0027.
The animals in groups 1 and 2 are administrated […] of the compounds by single gavage, respectively, and the administration volume is 10 mL/kg.
Whole blood samples (30 μl) are collected at the prescribed time points (0.25, 0.5, 1, 2, 4, 6, 8, 24 h) by saphenous vein blood collection, and the actual blood collection time is recorded in the test record. The acceptable error of the collection time point is a time point within 1 hour of administration time ±1 minute, and the acceptable error of other time points is a theoretical time ±5%.
All blood samples are immediately transferred to labeled commercial centrifuge tubes containing K2-EDTA. After being collected, the blood samples are centrifuged at 3200 rpm/min for 10 minutes at 4° C. to aspirate the supernatant plasma, which is quickly placed in dry ice, and kept at −20° C. or a lower temperature for LC-MS/MS analysis.

IC50 (human FGFR1): 2.12 nM
Selectivity FGFR1/2 (FGFR2; ratio of IC50 FGFR1 to IC50 FGFR2): 4.02
IC50 (FGFR2; wild-type kinase, 33P-ATP 5 μM, substrate pEY + Mn, 120 minutes at room temperature): 0.53 nM
Selectivity FGFR1/3 (FGFR3; ratio of IC50 FGFR1 to IC50 FGFR3): 3.06
IC50 (FGFR3; wild-type kinase, 33P-ATP 30 μM, substrate pEY + Mn, 120 minutes at room temperature): 0.69 nM
IC50 (human FGFR4): 106 nM
Tlast ([1]; 300 mpk): 24.0 h
AUC(0-inf) ([1]; po, 50 mg/kg, 50 mpk): 95.8 µM·h
AUC(0-t) ([1]; po, 50 mg/kg, 50 mpk): 85.8 µM·h
Cmax ([1]; po, 50 mg/kg, 50 mpk): 14.8 µM
Tmax ([1]; po, 50 mg/kg, 50 mpk): 1 h
half-life ([1]; po, 50 mg/kg, 50 mpk): 2.46 h
MRT inf ([1]; po, 50 mg/kg, 50 mpk, read-out: MRT0-inf): 5.39 h
MRT last ([1]; po, 50 mg/kg, 50 mpk): 4.33 h
AUC(0-t) ([1]; po, 300 mg/kg, 300 mpk): 699 µM·h
Cmax ([1]; po, 300 mg/kg, 300 mpk): 42.1 µM
Tmax ([1]; po, 300 mg/kg, 300 mpk): 7 h
MRT last ([1]; po, 300 mg/kg, 300 mpk): 11.1 h
SMILES: COc1cc(OC)c(Cl)c(-c2nc(-c3nc(-c4cn(C)nc4C)cnc3N)cn(C)c2=O)c1 [Trifluoroacetate salt of 0027]
